In the supplement of paper PMC10307832:

Legend:
Experiment in all cases: relative viability (nuclei count vs DMSO), 5 days (fraction); higher = more cells survive
ChaGo-K-1 = tested on: ChaGo-K-1
Procedure, shortened: (§1)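 Dosing by pin tool came one day after lung cancer cell lines were seeded in 1536-well plates, using either one drug or a fixed anchor-drug dose plus five library-drug doses (not always all listed) in √10 steps. After 5 days, nuclei were counted on 4× images. Relative viability is treated-well nuclei count divided by vehicle-well nuclei count, and values are medians of duplicate plates.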

EMC-BAC-2 = tested on: EMC-BAC-2
Procedure, shortened: as §1

EPLC-272H = tested on: EPLC-272H
Procedure, shortened: as §1

H3255 = tested on: H3255
Procedure, shortened: as §1

HCC-44 = tested on: HCC-44
Procedure, shortened: as §1

HCC-827 = tested on: HCC-827
Procedure, shortened: as §1

LCLC-103H = tested on: LCLC-103H
Procedure, shortened: as §1

LCLC-97TM1 = tested on: LCLC-97TM1
Procedure, shortened: as §1

NCI-H1355 = tested on: NCI-H1355
Procedure, shortened: as §1

NCI-H1395 = tested on: NCI-H1395
Procedure, shortened: as §1

NCI-H1651 = tested on: NCI-H1651
Procedure, shortened: as §1

NCI-H1793 = tested on: NCI-H1793
Procedure, shortened: as §1

NCI-H1944 = tested on: NCI-H1944
Procedure, shortened: as §1

NCI-H2023 = tested on: NCI-H2023
Procedure, shortened: as §1

NCI-H2085 = tested on: NCI-H2085
Procedure, shortened: as §1

NCI-H2087 = tested on: NCI-H2087
Procedure, shortened: as §1

NCI-H2405 = tested on: NCI-H2405
Procedure, shortened: as §1

NCI-H322M = tested on: NCI-H322M
Procedure, shortened: as §1

NCI-H520 = tested on: NCI-H520
Procedure, shortened: as §1

NCI-H650 = tested on: NCI-H650
Procedure, shortened: as §1

SK-MES-1 = tested on: SK-MES-1
Procedure, shortened: as §1

UMC-11 = tested on: UMC-11
Procedure, shortened: as §1

With NC(=O)Nc1cc(-c2cccc(F)c2)sc1C(=O)N[C@H]1CCCNC1 [AZD7762] + O=C(CCCCCCC(=O)Nc1ccccc1)NO [Vorinostat] (partner 1 µM) the relative viability (ChaGo-K-1; first compound 0.01 µM) was 0.744, the relative viability (ChaGo-K-1; first compound 0.03162 µM) was 0.743 and the relative viability (ChaGo-K-1; first compound 0.1 µM) was 0.739. The relative viability (ChaGo-K-1; first compound 0.3162 µM) was 0.785, the relative viability (ChaGo-K-1; first compound 1 µM) was 0.793 and the relative viability (EMC-BAC-2; first compound 0.01 µM) was 0.416. It also gave a relative viability (EMC-BAC-2; first compound 0.03162 µM) of 0.475, a relative viability (EMC-BAC-2; first compound 0.1 µM) of 0.523 and a relative viability (EMC-BAC-2; first compound 0.3162 µM) of 0.456. For the same molecule, the relative viability (EMC-BAC-2; first compound 1 µM) was 0.456, the relative viability (EPLC-272H; first compound 0.01 µM) was 0.705 and the relative viability (EPLC-272H; first compound 0.03162 µM) was 0.543. It also gave a relative viability (EPLC-272H; first compound 0.1 µM) of 0.383, a relative viability (EPLC-272H; first compound 0.3162 µM) of 0.107 and a relative viability (EPLC-272H; first compound 1 µM) of 0.0642. The relative viability (H3255; first compound 0.01 µM) was 0.944, the relative viability (H3255; first compound 0.03162 µM) was 0.831 and the relative viability (H3255; first compound 0.1 µM) was 0.809. The relative viability (H3255; first compound 0.3162 µM) was 0.722, the relative viability (H3255; first compound 1 µM) was 0.684 and the relative viability (HCC-44; first compound 0.01 µM) was 1.08. It also gave a relative viability (HCC-44; first compound 0.03162 µM) of 1.11, a relative viability (HCC-44; first compound 0.1 µM) of 1.1 and a relative viability (HCC-44; first compound 0.3162 µM) of 1.1. The relative viability (HCC-44; first compound 1 µM) was 1.02, the relative viability (HCC-827; first compound 0.01 µM) was 0.984 and the relative viability (HCC-827; first compound 0.03162 µM) was 0.947. For the same molecule, the relative viability (HCC-827; first compound 0.1 µM) was 0.846, the relative viability (HCC-827; first compound 0.3162 µM) was 0.753 and the relative viability (HCC-827; first compound 1 µM) was 0.618. The relative viability (LCLC-103H; first compound 0.01 µM) was 0.857, the relative viability (LCLC-103H; first compound 0.03162 µM) was 0.776 and the relative viability (LCLC-103H; first compound 0.1 µM) was 0.842. The relative viability (LCLC-103H; first compound 0.3162 µM) was 0.591, the relative viability (LCLC-103H; first compound 1 µM) was 0.69 and the relative viability (LCLC-97TM1; first compound 0.01 µM) was 0.799. The relative viability (LCLC-97TM1; first compound 0.03162 µM) was 0.725, the relative viability (LCLC-97TM1; first compound 0.1 µM) was 0.648 and the relative viability (LCLC-97TM1; first compound 0.3162 µM) was 0.636. The relative viability (LCLC-97TM1; first compound 1 µM) was 0.356, the relative viability (NCI-H1355; first compound 0.01 µM) was 0.609 and the relative viability (NCI-H1355; first compound 0.03162 µM) was 0.629. It also gave a relative viability (NCI-H1355; first compound 0.1 µM) of 0.649, a relative viability (NCI-H1355; first compound 0.3162 µM) of 0.647 and a relative viability (NCI-H1355; first compound 1 µM) of 0.379. For the same molecule, the relative viability (NCI-H1395; first compound 0.01 µM) was 0.721, the relative viability (NCI-H1395; first compound 0.03162 µM) was 0.84 and the relative viability (NCI-H1395; first compound 0.1 µM) was 0.684. It also gave a relative viability (NCI-H1395; first compound 0.3162 µM) of 0.32, a relative viability (NCI-H1395; first compound 1 µM) of 0.336 and a relative viability (NCI-H1651; first compound 0.01 µM) of 0.569. For the same molecule, the relative viability (NCI-H1651; first compound 0.03162 µM) was 0.727, the relative viability (NCI-H1651; first compound 0.1 µM) was 0.587 and the relative viability (NCI-H1651; first compound 0.3162 µM) was 0.533. It also gave a relative viability (NCI-H1651; first compound 1 µM) of 0.272, a relative viability (NCI-H1793; first compound 0.01 µM) of 0.692 and a relative viability (NCI-H1793; first compound 0.03162 µM) of 0.878. It also gave a relative viability (NCI-H1793; first compound 0.1 µM) of 0.981, a relative viability (NCI-H1793; first compound 0.3162 µM) of 0.953 and a relative viability (NCI-H1793; first compound 1 µM) of 0.284. It also gave a relative viability (NCI-H1944; first compound 0.01 µM) of 0.544, a relative viability (NCI-H1944; first compound 0.03162 µM) of 0.654 and a relative viability (NCI-H1944; first compound 0.1 µM) of 0.611. The relative viability (NCI-H1944; first compound 0.3162 µM) was 0.568, the relative viability (NCI-H1944; first compound 1 µM) was 0.295 and the relative viability (NCI-H2023; first compound 0.01 µM) was 0.548. The relative viability (NCI-H2023; first compound 0.03162 µM) was 0.415, the relative viability (NCI-H2023; first compound 0.1 µM) was 0.257 and the relative viability (NCI-H2023; first compound 0.3162 µM) was 0.184. For the same molecule, the relative viability (NCI-H2023; first compound 1 µM) was 0.0942, the relative viability (NCI-H2085; first compound 0.01 µM) was 0.788 and the relative viability (NCI-H2085; first compound 0.03162 µM) was 0.784. It also gave a relative viability (NCI-H2085; first compound 0.1 µM) of 0.862, a relative viability (NCI-H2085; first compound 0.3162 µM) of 0.803 and a relative viability (NCI-H2085; first compound 1 µM) of 0.628. It also gave a relative viability (NCI-H2087; first compound 0.01 µM) of 0.891, a relative viability (NCI-H2087; first compound 0.03162 µM) of 0.874 and a relative viability (NCI-H2087; first compound 0.1 µM) of 0.841. It also gave a relative viability (NCI-H2087; first compound 0.3162 µM) of 0.976, a relative viability (NCI-H2087; first compound 1 µM) of 0.791 and a relative viability (NCI-H2405; first compound 0.01 µM) of 1.08. The relative viability (NCI-H2405; first compound 0.03162 µM) was 1.08, the relative viability (NCI-H2405; first compound 0.1 µM) was 0.976 and the relative viability (NCI-H2405; first compound 0.3162 µM) was 0.756. For the same molecule, the relative viability (NCI-H2405; first compound 1 µM) was 0.521, the relative viability (NCI-H322M; first compound 0.01 µM) was 0.822 and the relative viability (NCI-H322M; first compound 0.03162 µM) was 0.967. It also gave a relative viability (NCI-H322M; first compound 0.1 µM) of 0.935, a relative viability (NCI-H322M; first compound 0.3162 µM) of 0.792 and a relative viability (NCI-H322M; first compound 1 µM) of 0.478. It also gave a relative viability (NCI-H520; first compound 0.01 µM) of 0.78, a relative viability (NCI-H520; first compound 0.03162 µM) of 0.825 and a relative viability (NCI-H520; first compound 0.1 µM) of 0.635. The relative viability (NCI-H520; first compound 0.3162 µM) was 0.375, the relative viability (NCI-H520; first compound 1 µM) was 0.187 and the relative viability (NCI-H650; first compound 0.01 µM) was 0.435. The relative viability (NCI-H650; first compound 0.03162 µM) was 0.404, the relative viability (NCI-H650; first compound 0.1 µM) was 0.411 and the relative viability (NCI-H650; first compound 0.3162 µM) was 0.399. For the same molecule, the relative viability (NCI-H650; first compound 1 µM) was 0.334, the relative viability (SK-MES-1; first compound 0.01 µM) was 1.12 and the relative viability (SK-MES-1; first compound 0.03162 µM) was 1.01. The relative viability (SK-MES-1; first compound 0.1 µM) was 0.841, the relative viability (SK-MES-1; first compound 0.3162 µM) was 0.45 and the relative viability (SK-MES-1; first compound 1 µM) was 0.192. For the same molecule, the relative viability (UMC-11; first compound 0.01 µM) was 0.373, the relative viability (UMC-11; first compound 0.03162 µM) was 0.297 and the relative viability (UMC-11; first compound 0.1 µM) was 0.324. It also gave a relative viability (UMC-11; first compound 0.3162 µM) of 0.271 and a relative viability (UMC-11; first compound 1 µM) of 0.194.
